Reference: patent publication US6458834B2, “Pentacyclic triterpenes” (Micro Flo Company, priority 1998, dated 2002)
Where two headings read alike, the source gives them in different places.

What was measured:
human leucocyte elastase = biological target: T1, human leucocyte elastase (Homo sapiens, UniProt P08246); assay: Human leucocyte elastase (HLE) inhibition, MeO-Suc-Ala-Ala-Pro-Val-pNA substrate; type: biochemical
T1 construct: purchased Elastin Products
T1 sequence (P08246 30-267): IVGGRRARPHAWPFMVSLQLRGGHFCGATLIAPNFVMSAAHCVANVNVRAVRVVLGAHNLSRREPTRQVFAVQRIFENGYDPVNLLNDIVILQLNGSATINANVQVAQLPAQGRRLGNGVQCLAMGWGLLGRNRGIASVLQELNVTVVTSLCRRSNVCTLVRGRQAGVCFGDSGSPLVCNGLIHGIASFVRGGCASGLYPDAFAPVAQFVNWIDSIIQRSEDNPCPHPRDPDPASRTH
Method: Stock solutions were mixed to yield a reaction mixture consisting of 0.5 mM MeO-Suc-Ala-Ala-Pro-Val-pNA (Sigma) and […] human leucocyte elastase (Elastin Products) in 0.1 M Tris, 0.5 M NaCl and 3% DMSO (v/v) at a pH of 7.5. Test compounds were solubilized in DMSO. Equal volumes of enzyme and inhibitor were mixed and allowed to incubate for 15 minutes at room temperature. The reaction was started by the addition of a third equal volume containing substrate. Reactions were carried out in microliter plates.

trypsin = biological target: T2, trypsin (Bos taurus, UniProt P00760); assay: trypsin assay; type: biochemical
T2 construct: gene PRSS1
T2 sequence (P00760 24-246): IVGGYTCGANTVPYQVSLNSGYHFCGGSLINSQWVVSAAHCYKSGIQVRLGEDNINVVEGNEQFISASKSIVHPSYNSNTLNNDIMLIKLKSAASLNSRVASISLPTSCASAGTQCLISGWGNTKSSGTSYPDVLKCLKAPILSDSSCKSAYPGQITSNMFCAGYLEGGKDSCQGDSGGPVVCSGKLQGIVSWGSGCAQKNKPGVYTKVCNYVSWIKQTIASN
From the text: (§1) Thus, PTs appear to bind non-covalently to hydrophobic domains of enzymes and either block an access to the enzyme active site or cause conformational change, both resulting in the enzyme's inability to perform its function.

thrombin = thrombin (Homo sapiens, UniProt P00734); assay: thrombin assay; type: biochemical
From the text: as §1

urokinase = urokinase (Homo sapiens, UniProt P00749); assay: urokinase assay; type: biochemical; settings: for inhibition at 22 µM: measured at 22 μM
From the text: as §1

plasmin = plasmin (Homo sapiens, UniProt P00747); assay: plasmin assay; type: biochemical; settings: for inhibition at 22 µM: measured at 22 μM
plasmin, sequence (P00747 581-810 limits assumed, species assumed): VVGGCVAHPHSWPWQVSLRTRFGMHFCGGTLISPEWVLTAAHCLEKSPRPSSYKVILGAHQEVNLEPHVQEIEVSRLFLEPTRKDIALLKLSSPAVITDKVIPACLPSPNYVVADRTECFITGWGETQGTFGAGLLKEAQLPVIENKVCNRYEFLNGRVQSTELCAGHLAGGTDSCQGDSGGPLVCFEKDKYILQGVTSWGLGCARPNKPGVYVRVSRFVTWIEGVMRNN
plasmin, sequence (P00747 97-580 partner limits assumed, species assumed): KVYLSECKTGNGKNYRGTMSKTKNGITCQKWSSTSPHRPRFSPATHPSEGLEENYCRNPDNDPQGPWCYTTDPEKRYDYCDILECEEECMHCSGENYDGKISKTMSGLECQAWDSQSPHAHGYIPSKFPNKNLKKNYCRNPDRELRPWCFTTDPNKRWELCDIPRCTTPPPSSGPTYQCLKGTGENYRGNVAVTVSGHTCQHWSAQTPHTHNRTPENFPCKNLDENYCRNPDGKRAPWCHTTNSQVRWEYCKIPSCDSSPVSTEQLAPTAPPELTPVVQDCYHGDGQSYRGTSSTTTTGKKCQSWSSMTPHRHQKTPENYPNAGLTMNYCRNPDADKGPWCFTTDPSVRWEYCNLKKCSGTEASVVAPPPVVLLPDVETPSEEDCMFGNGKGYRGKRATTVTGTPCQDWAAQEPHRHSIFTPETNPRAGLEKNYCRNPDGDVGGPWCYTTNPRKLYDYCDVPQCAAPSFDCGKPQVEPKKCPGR
From the text: as §1

mites = settings: cited from earlier work
[1] = 0.1 M Tris, 0.5 M NaCl, 3% DMSO, pH 7.5, 15 min preincubation at room temperature, read-out: IC50

Compound	IC50 (human leucocyte elastase)	IC50 (human leucocyte elastase; [1])	further results
C=C(C)[C@@H]1CC[C@]2(C)CC[C@]3(C)[C@H](CC[C@@H]4[C@@]5(C)CC[C@H](O)C(C)(C)[C@@H]5CC[C@]43C)[C@@H]12 [Example 5, Lupeol]	8.4 µM		
C=C(C)[C@@H]1CC[C@]2(CO)CC[C@]3(C)[C@H](CC[C@@H]4[C@@]5(C)CC[C@H](O)C(C)(C)[C@@H]5CC[C@]43C)[C@@H]12 [Example 7, Betulin]	5 µM		
C=C(C)[C@@H]1CC[C@]2(COC(=O)CCC(=O)O)CC[C@]3(C)[C@H](CC[C@@H]4[C@@]5(C)CC[C@H](O)C(C)(C)[C@@H]5CC[C@]43C)[C@@H]12 [Example 8, 28-Succinylbetulin]		6.3 µM	
C=C(C)[C@@H]1CC[C@]2(C(=O)O)CC[C@]3(C)[C@H](CC[C@@H]4[C@@]5(C)CC[C@H](O)C(C)(C)[C@@H]5CC[C@]43C)[C@@H]12 [Example 9, Betulinic acid]		3.3 µM	IC50 (trypsin): 8.5 µM; IC50 (thrombin): 2.3 µM; IC50 (urokinase): 5 µM; IC50 (plasmin): 6.2 µM
C=C(C)[C@@H]1CC[C@]2(C(=O)OC)CC[C@]3(C)[C@H](CC[C@@H]4[C@@]5(C)CC[C@H](O)C(C)(C)[C@@H]5CC[C@]43C)[C@@H]12 [Example 10, Methyl ester of betulinic acid]		5.7 µM	
C=C(C)C1CCC2(C(=O)O)CCC3(C)C(CCC4C5(C)CCC(OC(C)=O)C(C)(C)C5CCC43C)C12 (stereo not shown) [Example 11, Acetylbetulinic acid]	7 µM		
C=C(C)[C@@H]1CC[C@]2(C(=O)O)CC[C@]3(C)[C@H](CC[C@@H]4[C@@]5(C)CCC(=O)C(C)(C)[C@@H]5CC[C@]43C)[C@@H]12 [Example 12, 3-Ketobetulinic acid]		11 µM	
C=C(C)C1CCC2(C(=O)O)CCC3(C)C(CCC4C5(C)CCC(OS(C)(=O)=O)C(C)(C)C5CCC43C)C12 (stereo not shown) [Example 13, Methanesulfonylbetulinic acid]	11.2 µM		melting point: 210 to 212 °C
C=C(C)C1CCC2(C(=O)OC)CCC3(C)C(CCC4C5(C)CCC(OS(C)(=O)=O)C(C)(C)C5CCC43C)C12 (stereo not shown) [Example 14, Methyl ester of 3-methanesulfonylbetulinic acid]		7.3 µM	
CC1(C)CC[C@]2(C)CC[C@]3(C)C(=CC[C@@H]4[C@@]5(C)CC[C@H](O)C(C)(C)[C@@H]5CC[C@]43C)[C@@H]2C1 [Example 15, β-Amyrin]		5.4 µM	
C[C@H]1[C@H](C)CC[C@]2(CO)CC[C@]3(C)C(=CC[C@@H]4[C@@]5(C)CC[C@H](O)C(C)(C)[C@@H]5CC[C@]43C)[C@H]12 [Example 16, Uvaol]	4.5 µM		
C[C@H]1[C@H](C)CC[C@]2(C(=O)O)CC[C@]3(C)C(=CC[C@@H]4[C@@]5(C)CC[C@H](O)C(C)(C)[C@@H]5CC[C@]43C)[C@H]12 [Example 17, Ursolic acid]	7.7 µM		inhibition at 22 µM (urokinase): 83%; effects towards the mites and their survival (mites): toxicity and feeding deterrent effects; reduction of ingestion time on diet containing ursolic acid (mites; diet containing ursolic acid): about 30%; inhibition at 22 µM (plasmin): 43%
COC(=O)[C@]12CC[C@@H](C)[C@H](C)[C@H]1C1=CC[C@@H]3[C@@]4(C)CC[C@H](O)C(C)(C)[C@@H]4CC[C@@]3(C)[C@]1(C)CC2 [Example 18, Ursolic acid, Me ester]		4.9 µM	
CC1(C)CC[C@]2(C(=O)O)CC[C@]3(C)C(=CC[C@@H]4[C@@]5(C)CC[C@H](O)C(C)(C)[C@@H]5CC[C@]43C)[C@@H]2C1 [Example 20, Oleanolic acid]			inhibition at 22 µM (urokinase): 40%; inhibition at 22 µM (plasmin): 25%
COC(=O)[C@]12CCC(C)(C)C[C@H]1C1=CC[C@@H]3[C@@]4(C)CC[C@H](O)C(C)(C)[C@@H]4CC[C@@]3(C)[C@]1(C)CC2 [Example 21, Oleanolic acid, Me ester]		8.5 µM	
CC1(C)CC[C@]2(C(=O)O)CC[C@]3(C)C(=CC[C@@H]4[C@@]5(C)CC[C@H](O)[C@@](C)(CO)[C@@H]5CC[C@]43C)[C@@H]2C1 [Example 23, Hederagenin]	16.8 µM		
CC1(C)CC[C@]2(C(=O)O)[C@H](O)C[C@]3(C)C(=CC[C@@H]4[C@@]5(C)CC[C@H](O)[C@@](C)(CO)[C@@H]5CC[C@]43C)[C@@H]2C1 [Example 24, Caulophyllogenin]			inhibition of HLE at a single concentration (human leucocyte elastase; @ 21°): 0% @ 21°
Lupeol acetate [Example 6]		14.9 µM	
